# Test results taken from patent US10758522B2, “Small molecule analogs of the nemo binding peptide” (THE SCRIPPS RESEARCH INSTITUTE, priority 2015, dated 2020).
# Key:
# [1] = target: T1, IKK complex (IKKß, IKKα and NEMO) (Homo sapiens, UniProt Q9Y6K9); test: Co-immunoprecipitation of NEMO with IKKß in 293 cells; assay type: cell-based; conditions: Zinc-5 at 4 hours, Zinc-13 at 1 hour, NBD peptide at 4 hours
# T1 construct: analyzed by Western blot for the level of co-precipitated NEMO; endogenous in cells; host or cells: 293 (HEK293) cells
# Excerpt: FIG. 8 is a bar graph showing the inhibition of TNFα by NBDA-1 (Zinc-13). […] In addition, we have examined the ability of the compounds to disrupt the IKK complex, comprised of IKKß, IKKα and NEMO.
# A non-functional, related compound Zinc-7 had no effect.
# IKKβ-NEMO interaction = test: Immunoprecipitation of NEMO and IKKβ immunoblot in Raw 264.7 macrophages and HEK293 cells; assay type: cell-based; conditions: Raw 264.7 macrophages / HEK293; mimetics 100 μM, 8K-NBD 400 μM
# Method: The NBD mimetics reduce the interaction between IKKg (NEMO) and IKKß. The indicated concentrations of the drugs were added to HEK 293 or Raw 264.7 cells and cell extracts prepared 30 minutes later. Following immunoprecipitation (IP) of NEMO, the Western was probed for IKKß.
# After treatment with the mimetics or NBD peptide, NEMO was immunoprecipitated by an anti-NEMO antibody and IKKβ was immunoblotted to determine the binding of IKKβ to NEMO.
# HEK293 or Raw264.7 cells were seeded at 1×10^6 cells/well in 6-well plates and treated with vehicle, small molecule or NBD peptide for indicated time. Cells were lysed in NP-40 lysis buffer supplemented with 1× protease inhibitor cocktails (sigma). Protein was immunoprecipitated by incubating 150 μg of lysate with 1 μg of anti-NEMO antibody (Santa Cruz) on a rotating shaker at 4° C. for 4 hrs, followed by incubation with 20 ul of Protein A agarose beads (ThermoFisher) for 1 hr. Beads were washed in NP40 buffer 3 times and PBS once. Protein was then denatured in SDS-sample buffer and resolved by MINI-PROTEAN TGX 4-15% SDS-PAGE. Anti-IKKβ (1:1000 CST) was used to assess binding of IKKβ to NEMO and anti-NEMO (1:1000 CST) or IgG were used to as a loading control.
# NF-κB target genes = test: qRT-PCR of NF-κB target genes in LPS-stimulated Raw 264.7 cells; assay type: cell-based, mouse; conditions: Raw 264.7, LPS
# Method: Effect of the NBD mimetics on expression of NF-kB regulated genes in the Raw mouse macrophage cell line. Treatment of the Raw cells with the indicated drugs prior to addition of LPS reduced NF-kB-mediated gene expression as measured by RT-PCR.
# To determine whether the inhibitory effect of the mimetics is TNF-α-dependent, LPS-mediated NF-κB activation via TLR4 was examined to determine a broader inhibitory effect of the novel NBD mimetics. NF-κB was stimulated in Raw 264.7 by 1 ug/ml of LPS for 2 hr and genes transcriptionally regulated by NF-κB were determined by qRT-PCR analysis. Both an IKK active site inhibitor IKKi VII (2 μM) and the 8K-NBD peptide (400 μM) were included as positive controls and the expression of COX2, IL-6, IL-1β, TNF-α, IκBα and iNOS were assessed.
# Raw 264.7 cells were treated with a 50 μM solution of the SR compound for 30 minutes, and then the mRNA was harvested 2 hours after addition of 1 μg/mL LPS.
# Snap frozen tissues were preserved in RNAlater RNA stabilization solution (ThermoFisher) before processed. Total RNA was extracted from cells or tissues using TRIZOL reagent (Life Technologies) and 1500 ng of messenger RNA (mRNA) was subjected to synthesize complementary DNA (cDNA) using SuperScript VILO cDNA synthesis kit. qRT-PCR was performed in a StepOnePlus Real-Time PCR system using Platinum SYBR Green qPCR SuperMix-UDG (ThermoFisher). Target gene expression was calculated using the comparative CT method (ΔΔCT) and normalized to an internal control gene Actb (β-actin). Primers used are as follows: Ptgs2 (COX-2) forward: […]; Ptgs2 (COX-2) reverse: […]; Nfkbia (IκBα) forward: […]; Nfkbia (IκBα) reverse: […]; Il1b (IL-1β) forward: […]; Il1b (IL-1β) reverse: […]; Nos2 (iNOS) forward: […]; Nos2 (iNOS) reverse: […]; Tnf (TNF) forward: […]; Tnf (TNF) reverse: […]; Il6 (IL-6) forward: […]; Il6 (IL-6) reverse: […]. Actb (β-actin) forward: […]; Actb (β-actin) reverse: […];
# mdx mice = test: Chronic treatment of mdx mice (Duchenne muscular dystrophy model); assay type: in vivo, mouse; conditions: ip 3 times/week for 4 weeks
# Excerpt: Mdx mice develop normally at birth, and then undergo a massive myonecrosis starting at three weeks. Treatment of mdx mice with IKK/NF-kB inhibitors effectively reduces inflammation, block necrosis and increase muscle regeneration. Mdx mice were chronically treated with vehicle, SR12343, SR12460 or 8K-NBD starting from day 21, 3 times/week for 4 weeks. […] To determine if SR12343 and SR12460 improve muscle pathology, tibialis anterior (TA) muscle was stained with hematoxylin and eosin (H&E) to assess inflammatory infiltration, necrosis, central nucleation and fibrosis. […] Fiber size in centrally nucleated and non-centrally nucleated myofibers was also smaller in mice treated with SR12343 and 8K-NBD, indicating active reconstruction of myofiber during the regenerative phase.
# To determine muscle strength post-treatment, grip strength test on forelimbs was performed 2 weeks and 4 weeks post-treatment.
# HEK293 cells were grown in Dulbecco's Modification of Eagles Medium (with 4.5 g/L glucose and L-glutamine), supplemented with 10% fetal bovine serum, penicillin and streptomycin. Raw264.7 cells were cultured in RPMI-1640 media containing 10% heat-inactivated fetal bovine serum, penicillin and streptomycin. C57BL/10ScSn-Dmd^mdx/J and female C57BL/6 mice were purchased from the Jackson Laboratory. Mice were housed in the animal facilities of Scripps Fla. under constant temperature and humidity. Animal protocols used in this study were approved by Scripps Fla. Institutional Animal Care and Use Committees. Three week-old sex-matched mdx mice were dosed with SR12343 (30 mg/kg), […] (30 mg/kg), 8K-NBD peptide (10 mg/kg) or vehicle by intraperitoneal (i.p.) injection 3 times per week for 4 weeks. Mice were sacrificed at 7 weeks of age by carbon dioxide inhalation and tibialis anterior was collected for histological analysis.
# Seven week-old treated or untreated mdx mice were measured for forelimb grip strength using a digital grip strength meter paired with a metal grid (Bioseb). Mice were allowed to grip the metal grid tightly and readings were obtained by gently pulling the tail backward until release. Five sequential measurements were performed and the average force was calculated.
# Tissues fixed in 10% neutral buffered formalin (NBF) overnight were imbedded in paraffin. Tissue was sectioned at […] using a microtome. H&E staining was conducted following a standard protocol (REF).
# [2] = test system: K14-Cre; Ercc1−/flox mice; test: Topical treatment of skin aging in K14-Cre; Ercc1−/flox mice; assay type: in vivo, mouse; conditions: daily
# Method: To test the ability of NBDA-1 to function in vivo, the drug was tested in several models of aging. In FIG. 12, the ability of topical treatment of NBDA-1 to reduce signs of skin aging is shown. Areas on the back of normal mice or mice with enhanced skin aging (K14-Cre; Ercc1^−/flox) were shaved and then treated daily with drugs or control creams.
# Ercc1−/Δ mice = test: Systemic treatment of Ercc1−/Δ mice, intervertebral disc proteoglycan; assay type: in vivo, mouse; conditions: IP 3× a week, 10 mg/kg for 8 weeks
# Method: The ability of the compounds to work systemically was also tested. In these experiments, Ercc1^−/Δ mice with accelerated aging (lifespan of 5 months) were treated systemically, 3× a week, by IP injection at a dose of 10 mg/kg for 8 weeks. Since we previously had shown that the NF-κB is a key factor in driving intervertebral disc degenerated, we assessed the effects of treatment on proteoglycan synthesis and content in the discus following treatment.
# T1 sequence (Q9Y6K9 whole entry, one chain of several): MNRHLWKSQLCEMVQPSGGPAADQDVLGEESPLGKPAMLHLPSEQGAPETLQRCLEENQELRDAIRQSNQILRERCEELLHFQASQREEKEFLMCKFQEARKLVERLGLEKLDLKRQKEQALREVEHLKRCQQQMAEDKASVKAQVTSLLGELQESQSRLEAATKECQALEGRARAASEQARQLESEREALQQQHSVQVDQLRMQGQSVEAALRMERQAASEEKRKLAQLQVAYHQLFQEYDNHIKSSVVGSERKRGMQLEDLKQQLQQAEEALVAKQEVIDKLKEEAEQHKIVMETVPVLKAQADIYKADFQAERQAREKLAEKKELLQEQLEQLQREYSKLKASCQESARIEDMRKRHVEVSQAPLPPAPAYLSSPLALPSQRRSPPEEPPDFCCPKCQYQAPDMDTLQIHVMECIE
substance,measurement,setting,value
"8K-NBD peptide: 8K-NBD (KKKKKKKKGGTALDWSWLQTE) peptide, NEMO binding domain peptide with protein transduction domain, control [reference compound]",level of NEMO co-immunoprecipitated with IKKß,[1],reduced the level of co-immunoprecipitated NEMO
same,"disruption of IKKβ-NEMO interaction (NEMO IP, IKKβ blot)",IKKβ-NEMO interaction,able to disrupt the protein-protein interaction in macrophages at 400 μM
same,iNOS expression,NF-κB target genes,significantly inhibited
same,expression of eMyHC and Pax 7 in TA muscle (qRT-PCR),mdx mice,"increased eMyHC expression, but to a lower extent compared to SR12343"
same,fiber size in centrally nucleated and non-centrally nucleated myofibers,mdx mice,smaller
same,tibialis anterior muscle pathology (H&E),"mdx mice; SR compounds 30 mg/kg, 8K-NBD 10 mg/kg",reduced inflammatory cell infiltration and necrosis and also promoted muscle regeneration
same,epidermal thickness / skin architecture,[2],improved skin architecture and increased epidermal thickness
same,proteoglycan synthesis and content in the intervertebral disc,Ercc1−/Δ mice,"restored proteoglycan synthesis and content back to levels seen in normal, young mice"
